The target of this assay is T1, Robo1 (Roundabout receptor 1; Robo1-GFP) (Homo sapiens, UniProt Q9Y6N7).
T1 sequence (Q9Y6N7 60-265 limits assumed): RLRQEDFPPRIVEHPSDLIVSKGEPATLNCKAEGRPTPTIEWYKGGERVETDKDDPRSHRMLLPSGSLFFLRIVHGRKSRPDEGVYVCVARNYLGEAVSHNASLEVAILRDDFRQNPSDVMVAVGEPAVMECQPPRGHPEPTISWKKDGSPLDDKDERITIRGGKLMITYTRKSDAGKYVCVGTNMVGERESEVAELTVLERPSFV
The experiment in a line: SPR, Biacore T100, Robo1 immobilised on CM5. It is filed as binding. Particulars: HBS-EP pH 7.4, 150 mM NaCl, 25 °C; Langmuir 1:1 fit. A general note: In SPR one partner is held on a chip, and binding of the other changes the refractive index at the surface.

Regarding “GlcA-GlcNS6S-IdoA-GlcNS-IdoA2S-GlcNS6S-IdoA-GlcNAc6S [compound 1]”, binding was put at a Kd of 4.8 µM.

Take IdoA-GlcNS6S-IdoA-GlcNS6S [compound 19]: the Kd (commonly a measure of binding affinity in units of concentration) was roughly 20 µM.

Source of the values: paper PMC5068570 (Journal of the American Chemical Society, 2016).
